Here are results for 2 compounds from ChEMBL document CHEMBL1150067, “Anti-tumor-promoting activities of afromosin and soyasaponin I isolated from Wistaria brachybotrys” (1992).

What all share (type): functional
The species named for experiment [1] is Mus musculus. Briefly: Inhibition of 4NQO-induced carcinogenesis in mouse assessed as number of tumors per mouse at 1.25 mg after 25 weeks by two stage carcinogenesis test.
The subject of experiment [2] is Mus musculus. Briefly: Inhibition of DMBA-induced/TPA-promoted carcinogenesis in mouse assessed as number of skin papillomas per mouse at 85 nmol administered twice weekly after 1 week of initiation measured after 20 weeks by two stage carcinogenesis test. Further details: scale not given: the % may be the effect or the level left.
The species entered for experiment [3] is Mus musculus. The experiment in a line: Inhibition of 4NQO-induced carcinogenesis in mouse assessed as total number of tumors at 1.25 mg after 25 weeks by two stage carcinogenesis test.
Experiment [4] is filed under the species Mus musculus. The experiment in a line: Inhibition of 4NQO-induced carcinogenesis in mouse assessed as reduction of mouse with tumor at 1.25 mg after 25 weeks by two stage carcinogenesis test. Details: scale not given: the % may be the effect or the level left.

Take `COc1ccc(-c2coc3cc(O)c(OC)cc3c2=O)cc1` [CASTANIN]: the Activity in the experiment filed under Mus musculus [1] was 0.93; with Mus musculus [2], 40%; in the experiment filed under Mus musculus [3], 14; in the experiment filed under Mus musculus [4], 60%.
Consider `C[C@@H]1O[C@@H](O[C@H]2[C@H](O[C@H]3[C@H](O[C@H]4CC[C@@]5(C)[C@@H](CC[C@]6(C)[C@@H]5CC=C5[C@@H]7CC(C)(C)C[C@@H](O)[C@]7(C)CC[C@]56C)[C@@]4(C)CO)O[C@H](C(=O)O)[C@@H](O)[C@@H]3O)O[C@H](CO)[C@H](O)[C@@H]2O)[C@H](O)[C@H](O)[C@H]1O` [SOYASAPONIN I], for which the Activity with Mus musculus [2] was 40%.
